{"source": "patent US11510410B2", "about": "“Pediculicidal composition” (DR. REDDY'S LABORATORIES, S.A., priority 2013, dated 2022)", "key": {"[1]": {"tested_on": "Pediculus humanus capitis eggs", "test": "Ex vivo ovicidal efficacy, double-blind vehicle-controlled randomized clinical trial (Example 7)", "experimental": "In this study the formulation as listed in Table 9 containing 0.74% 5,5′-dimethyl-2,2′-dipyridyl, (abametapir), was evaluated in a double-blind, vehicle-controlled randomized clinical trial. The primary aim of the trial was to evaluate the ovicidal efficacy of a single application of abametapir lotion 0.74% w/w intended for the treatment of head lice. The primary end point was the proportion of hatched eggs pre-treatment relative to proportion of hatched eggs post-treatment for the formulation containing abametapir and vehicle treated eggs following a 14 day incubation.\nThis ex vivo study involved identifying subjects with an active head lice infestation (active being defined as the presence of at least 3 live lice and at least 10 undamaged eggs). A minimum of 5 undamaged eggs were collected both pre and post treatment and their predicted viability assessed under a dissecting microscope before being incubated in a temperature and humidity controlled incubator (30° C. and 60% RH) for 14 days to provide adequate time for the eggs to hatch. After 14 days eggs were assessed as either hatched, unhatched, or partially hatched."}, "[2]": {"test": "Safety of single application in subjects (Example 8)", "assay_type": "in vivo, human", "conditions": "single application at two dose levels 0.37% w/w and 0.74% w/w", "experimental": "(§1) One hundred and forty two (142) pediatric and adult subjects, three (3) years of age or older, with an active head lice infestation were enrolled in the study. This study assessed the efficacy of a single application of 2 different dose levels (0.37% w/w and 0.74% w/w of 5,5′-dimethyl-2,2′-dipyridyl) compared to a vehicle control. The formulations were prepared as described in Table 9. Subjects were treated for 10 minutes with a lotion containing one of two dose levels of 5,5′-dimethyl-2,2′-dipyridyl or the vehicle lotion. After 10 minutes the lotion was rinsed out of the subjects hair with water and towel dried. At day 1, 7 and 14 post treatment the hair was examined for the presence of live lice. If any live lice were detected on any of the three visits the subject was deemed a treatment failure. The primary endpoint to the study was that proportion of subjects who were lice free at day 14."}, "[3]": {"tested_on": "Pediculus humanus capitis eggs", "test": "Effect of formulated 5,5′-dimethyl-2,2′-dipyridyl on egg hatching (Example 3)", "conditions": "for Stage of development: eggs with eye development / Stage of development: eggs with no eye development / Stage of development: eggs hatched: 10 eggs", "experimental": "Gravid female lice were permitted to lay eggs over a 24 hour period. The eggs were counted, inspected under a light microscope and all eggs that appeared undamaged were allocated to one of two treatment groups. One group of 10 eggs was exposed to 5,5′-dimethyl-2,2′-dipyridyl in a formulation (52-06-01), while the second group of 10 eggs was exposed to the formulation only (vehicle, 52-06-02) Table 2. The two formulations were as follows: […]\nFollowing a 10 minute exposure to either the 52-06-01 or […] formulations the eggs were subsequently washed for 1 minute with water (˜37° C.) before being placed at 31° C. in a humid incubator and monitored over time for signs of development specifically of the eyes and through to subsequent hatching."}, "[4]": {"tested_on": "Pediculus humanus humanus eggs", "test": "In vitro ovicidal efficacy, 0.74% w/w composition versus vehicle (Example 6)", "conditions": "compared to the vehicle formulation", "experimental": "This formulation including 0.5% BHT was also evaluated for its ovicidal activity."}, "[5]": {"test": "Safety of single application in Phase 3 studies (Example 9)", "assay_type": "in vivo, human", "conditions": "single application 0.74% w/w", "experimental": "A total of seven hundred and four (704) pediatric and adult subjects, six (6) months of age or older, with an active head lice infestation were enrolled in two separate Phase 3 studies. These studies assessed the efficacy of a single application of 0.74% w/w abametapir compared to a vehicle control (refer Table 9, above). Subjects were treated for 10 minutes with a lotion containing abametapir or the vehicle lotion alone. After 10 minutes the lotion was rinsed out of the subjects hair with water and towel dried. At day 1, 7 and 14 post treatment the hair was examined for the presence of live lice. If any live lice were detected on any of the three visits the subject was deemed a treatment failure. The primary endpoint to the study was that proportion of index subjects (youngest member of the household with at least 3 live lice at the commencement of the study) who were lice free at all follow-up visits through day 14."}, "[6]": {"tested_on": "head lice Pediculus humanus capitis infestation", "test": "In vivo efficacy in subjects with head lice infestation, two dose levels (Example 8)", "conditions": "single 10 minute application, human subjects 3 years or older", "experimental": "as §1"}, "[7]": {"conditions": "Day 1 of observation, formulation 52-06-01 (0.38%), 10 minute exposure"}, "[8]": {"conditions": "Day 4, formulation 52-06-01, 10 minute exposure"}, "[9]": {"conditions": "Day 5, formulation 52-06-01, 10 minute exposure"}, "[10]": {"conditions": "Day 6, formulation 52-06-01, 10 minute exposure"}, "[11]": {"conditions": "Day 7, formulation 52-06-01, 10 minute exposure"}, "[12]": {"conditions": "Day 12, formulation 52-06-01, 10 minute exposure"}}, "data": [{"smiles": "Cc1ccc(-c2ccc(C)cn2)nc1", "note": "[5,5′-dimethyl-2,2′-dipyridyl]", "values": [{"measurement": "Egg hatch Post-treatment", "setting": "[1]; eggs collected after single application, 14 day incubation, N = 25", "value": 0, "unit": "%"}, {"measurement": "Egg hatch Pre-treatment", "setting": "[1]; eggs collected pre-treatment (baseline), 14 day incubation, N = 25", "value": 93.3, "unit": "%"}, {"measurement": "Total absolute reduction in hatch rate (CI 95%)", "setting": "[1]; generalized estimating equation model", "value": 92.9, "unit": "%"}, {"measurement": "The treatment difference in the absolute reduction of hatch rates (abametapir minus Vehicle)", "setting": "[1]; p < 0.0001", "value": 50.6, "unit": "%"}, {"measurement": "ovicidal efficacy (eggs treated failed to hatch)", "setting": "[1]; post-treatment, 14 day incubation", "value": 100, "unit": "%"}, {"measurement": "safety results", "setting": "[2]", "value": "safe and well tolerated"}, {"measurement": "Stage of development: eggs with eye development", "setting": "[3]; [7]", "value": 1, "unit": "eye development"}, {"measurement": "Stage of development: eggs with no eye development", "setting": "[3]; [7]", "value": 9, "unit": "no eye development"}, {"measurement": "Stage of development: eggs hatched", "setting": "[3]; [8]", "value": 1, "unit": "hatched"}, {"measurement": "Stage of development: eggs with eye development", "setting": "[3]; [8]", "value": 1, "unit": "eye development"}, {"measurement": "Stage of development: eggs with no eye development", "setting": "[3]; [8]", "value": 8, "unit": "no eye development"}, {"measurement": "Stage of development: eggs hatched", "setting": "[3]; [9]", "value": 1, "unit": "hatched"}, {"measurement": "Stage of development: eggs with eye development", "setting": "[3]; [9]", "value": 1, "unit": "eye development"}, {"measurement": "Stage of development: eggs with no eye development", "setting": "[3]; [9]", "value": 8, "unit": "no eye development"}, {"measurement": "Stage of development: eggs hatched", "setting": "[3]; [10]", "value": 1, "unit": "hatched"}, {"measurement": "Stage of development: eggs with eye development", "setting": "[3]; [10]", "value": 1, "unit": "eye development"}, {"measurement": "Stage of development: eggs with no eye development", "setting": "[3]; [10]", "value": 8, "unit": "no eye development"}, {"measurement": "Stage of development: eggs hatched", "setting": "[3]; [11]", "value": 1, "unit": "hatched"}, {"measurement": "Stage of development: eggs with eye development", "setting": "[3]; [11]", "value": 1, "unit": "eye development"}, {"measurement": "Stage of development: eggs with no eye development", "setting": "[3]; [11]", "value": 8, "unit": "no eye development"}, {"measurement": "Stage of development: eggs hatched", "setting": "[3]; [12]", "value": 1, "unit": "hatched"}, {"measurement": "Stage of development: eggs with eye development", "setting": "[3]; [12]", "value": 1, "unit": "eye development"}, {"measurement": "Stage of development: eggs with no eye development", "setting": "[3]; [12]", "value": 8, "unit": "no eye development"}, {"measurement": "eggs in the treatment arm failed to hatch", "setting": "[3]; overall, ten eggs, 0.37% w/w formulation, 10 minute exposure", "value": 90, "unit": "%"}, {"measurement": "ovicidal activity (in words)", "setting": "[4]", "value": "significant ovicidal activity"}, {"measurement": "safety results", "setting": "[5]", "value": "safe and well tolerated"}, {"measurement": "subjects with treatment success (lice free at day 14)", "setting": "[6]; 0.37% w/w lotion", "value": 67.4, "unit": "%"}, {"measurement": "subjects with treatment success (lice free at day 14)", "setting": "[6]; 0.74% w/w lotion", "value": 85.7, "unit": "%"}]}]}
